Laboratory results: patent publication US7435740B2 (King Pharmaceuticals Research and Development, Inc., priority 2005, dated 2008)
Like-named read-outs stand apart in the source and are kept apart here.

What was measured:
[1] = molecular target: T1, human recombinant A2B adenosine receptor (Homo sapiens, UniProt P29275); assay: cAMP assay in CHO hA2B; format: cell-based; conditions: for cAMP assay in CHO hA22B, percentage in parentheses: percentage given after the > bound, meaning not defined in the patent; for IC50: confidence limits in parentheses, read-out: cAMP assay in CHO hA22B IC50
T1 sequence (P29275 1-332): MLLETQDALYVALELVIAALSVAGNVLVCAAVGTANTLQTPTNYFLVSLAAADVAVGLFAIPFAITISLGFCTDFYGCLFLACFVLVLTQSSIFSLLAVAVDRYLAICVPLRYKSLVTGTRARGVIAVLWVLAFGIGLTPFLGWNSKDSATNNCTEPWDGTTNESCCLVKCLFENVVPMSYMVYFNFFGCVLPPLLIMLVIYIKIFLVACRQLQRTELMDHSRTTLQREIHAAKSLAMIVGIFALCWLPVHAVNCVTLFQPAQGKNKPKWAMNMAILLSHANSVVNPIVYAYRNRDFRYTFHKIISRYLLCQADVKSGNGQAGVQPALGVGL

[2] = molecular target: T2, human recombinant A3 adenosine receptors (Homo sapiens, UniProt P0DMS8); assay: [3H]-MRE 3008F20 binding to hA3 receptors expressed in CHO cells; conditions: for Ki: CHO cell membranes, 1 nM [3H]-MRE 3008F20, geometric mean, confidence limits in the line below, read-out: [3H] MRE3008F20 binding to hA3 receptors expressed in CHO cells Ki; for [3H] MRE3008F20 binding to hA3 receptors, percentage in parentheses: percentage printed below the > bound, meaning not defined in the patent; for A3 receptor affinity (in words) / selectivity versus the adenosine hA1 subtype (in words): qualitative statement; for selectivity versus the adenosine hA1 subtype (in words): hA3 versus hA1
T2 construct: expressed in transfected cells; host or cells: CHO cells (membranes)
T2 sequence (P0DMS8 1-318): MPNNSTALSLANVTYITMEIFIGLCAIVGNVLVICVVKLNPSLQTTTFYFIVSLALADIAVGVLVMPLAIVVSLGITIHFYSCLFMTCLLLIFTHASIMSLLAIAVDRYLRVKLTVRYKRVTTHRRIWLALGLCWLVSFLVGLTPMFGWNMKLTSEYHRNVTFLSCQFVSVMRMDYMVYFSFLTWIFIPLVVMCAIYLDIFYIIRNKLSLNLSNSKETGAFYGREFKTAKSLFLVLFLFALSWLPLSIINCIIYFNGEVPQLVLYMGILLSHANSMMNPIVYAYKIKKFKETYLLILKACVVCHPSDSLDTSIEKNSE

[3] = molecular target: human recombinant A2A adenosine receptors (Homo sapiens, UniProt P29274); assay: Radioligand binding to hA2A receptors expressed in CHO cells; conditions: for [3H] ZM 241385 binding to hA2A receptors, percentage in parentheses: percentage given after the > bound, meaning not defined in the patent
[4] = molecular target: T3, human recombinant A1 adenosine receptor (Homo sapiens, UniProt P30542); assay: [3H]-DPCPX binding to human A1 adenosine receptor expressed in CHO cells; conditions: for [3H] DPCPX binding to hA1, percentage in parentheses: percentage given after the > bound, meaning not defined in the patent
T3 sequence (P30542 1-326): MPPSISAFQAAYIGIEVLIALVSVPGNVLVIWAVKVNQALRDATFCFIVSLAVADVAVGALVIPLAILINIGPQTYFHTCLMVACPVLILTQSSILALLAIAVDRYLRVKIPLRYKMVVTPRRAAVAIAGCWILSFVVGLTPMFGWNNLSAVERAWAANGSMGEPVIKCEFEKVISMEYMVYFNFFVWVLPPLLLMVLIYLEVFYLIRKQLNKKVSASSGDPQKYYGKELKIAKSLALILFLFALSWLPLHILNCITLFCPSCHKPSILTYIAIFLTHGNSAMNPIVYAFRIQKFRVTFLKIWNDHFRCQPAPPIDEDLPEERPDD

[5] = read-out: [3H] DPCPX binding to hA1, CHO cell membranes, 1 nM [3H]-DPCPX, geometric mean with confidence limits in parentheses

human recombinant A2A adenosine receptors, sequence (P29274 whole entry): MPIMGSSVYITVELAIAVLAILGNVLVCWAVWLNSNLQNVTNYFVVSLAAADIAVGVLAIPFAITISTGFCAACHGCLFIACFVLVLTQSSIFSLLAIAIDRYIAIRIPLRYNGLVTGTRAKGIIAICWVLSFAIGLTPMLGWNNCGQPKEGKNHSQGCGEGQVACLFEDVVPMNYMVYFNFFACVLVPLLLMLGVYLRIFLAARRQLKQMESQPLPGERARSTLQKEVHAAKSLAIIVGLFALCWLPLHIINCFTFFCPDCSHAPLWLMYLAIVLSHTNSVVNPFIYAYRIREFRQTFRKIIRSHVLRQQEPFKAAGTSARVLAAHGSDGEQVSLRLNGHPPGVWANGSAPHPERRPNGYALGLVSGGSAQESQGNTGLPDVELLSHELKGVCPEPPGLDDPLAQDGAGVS

Structure (SMILES)	cAMP assay in CHO hA22B, percentage in parentheses [1]	Ki [2]	melting point	[3H] ZM 241385 binding to hA2A receptors, percentage in parentheses [3]	Ki [4, 5]	[3H] MRE3008F20 binding to hA3 receptors, percentage in parentheses [2]	[3H] DPCPX binding to hA1, percentage in parentheses [4]	IC50 [1]	Ki [3]	Ki [4]	selectivity versus the adenosine hA1 subtype (in words) [2]	A3 receptor affinity (in words) [2]
CCCn1c(=O)c2c(nc3[nH]c(-c4ccc(-c5ccccc5)cc4)cn32)n(Cc2ccccc2)c1=O [Compound 4, 1-Benzyl-7-(biphenyl-4-yl)-3-propyl-1H-imidazo[1,2-f]purine-2,4(3H,8H)-dione]		> 1000 nM	272 °C	98%		(90%)	95%					
CCCn1c(=O)c2c(nc3n2CC(c2ccccc2)=NN3CCO)n(Cc2ccccc2)c1=O [Compound 7, 8-Benzyl-1-(2-hydroxy-ethyl)-3-phenyl-6-propyl-1,4-dihydro-8H-1,2,4a,6,8,9-hexaaza-fluorene-5,7-dione]	83%	> 1000 nM		99%		(99%)	91%	> 1000 nM	> 1000 nM	> 1000 nM		
CCCn1c(=O)c2c(nc3n2CC(CC)=C3)n(Cc2ccccc2)c1=O [Compound 18, 1-Benzyl-7-ethyl-3-propyl-1H-pyrrolo[1,2-f]purine-2,4(3H,6H)-dione]	71%											
CCCn1c(=O)c2c(nc3[nH]c(-c4ccccc4)cn32)n(CCC)c1=O [Compound 8, 7-Phenyl-1,3-dipropyl-1H-imidazo[1,2-f]purine-2,4(3H,8H)-dione]	61%	99 nM		78%	373 nM			> 1000 nM	> 1000 nM		significant loss of selectivity	substantial maintenance of A3 receptor affinity
CCCn1c(=O)c2c(nc3n2C(C)C(C)=C3)n(Cc2ccccc2)c1=O (stereo not shown) [Compound 19, 1-Benzyl-6,7-dimethyl-3-propyl-1H-pyrrolo[1,2-f]purine-2,4(3H,6H)-dione]	60%	80 nM		91%			65%					
Cc1cn2c(nc3c2c(=O)n(C)c(=O)n3C)[nH]1 [Compound 27, 1,3,7-Trimethyl-1H-imidazo[1,2-f]purine-2,4(3H,8H)-dione]	88%	> 1000 nM		99%		(93%)	96%	> 1000 nM	> 1000 nM	> 1000 nM		
CCCn1c(=O)c2c(nc3n2CC(C)=C3)n(Cc2ccccc2)c1=O [Compound 17, 1-Benzyl-7-methyl-3-propyl-1H-pyrrolo[1,2-f]purine-2,4(3H,6H)-dione]		8 nM		99%				400 nM	> 5000 nM	3030 nM		
CC(C)Cn1c(=O)c2c(nc3[nH]c(-c4ccccc4)cn32)n(CC(C)C)c1=O [Compound 9, 1,3-Diisobutyl-7-phenyl-1H-imidazo[1,2-f]purine-2,4(3H,8H)-dione]	99%	144 nM		86%	476 nM			> 1000 nM	> 1000 nM		significant loss of selectivity	substantial maintenance of A3 receptor affinity
CCCn1c(=O)c2c(nc3n2CC(c2ccccc2)=NN3C)n(Cc2ccccc2)c1=O [Compound 6, 8-Benzyl-1-methyl-3-phenyl-6-propyl-1,4-dihydro-8H-1,2,4a,6,8,9-hexaaza-fluorene-5,7-dione]	94%	> 1000 nM		99%		(99%)	79%	> 1000 nM	> 1000 nM	> 1000 nM		
CCCn1c(=O)c2c(nc3n2CC(c2ccccc2)=C3)n(Cc2ccccc2)c1=O [Compound 1, 1-Benzyl-7-phenyl-3-propyl-1H-pyrrolo[1,2-f]purine-2,4(3H,6H)-dione]		200 nM		99%			75%					

Now from value to compound, other results behind:

cAMP assay in CHO hA22B, percentage in parentheses [1]	Ki [2]	melting point	[3H] ZM 241385 binding to hA2A receptors, percentage in parentheses [3]	Ki [4, 5]	[3H] MRE3008F20 binding to hA3 receptors, percentage in parentheses [2]	[3H] DPCPX binding to hA1, percentage in parentheses [4]	IC50 [1]	Ki [3]	Ki [4]	selectivity versus the adenosine hA1 subtype (in words) [2]	Structure (SMILES)	A3 receptor affinity (in words) [2]
79%	23 nM	244 to 245 °C	98%	350 nM							CCCn1c(=O)c2c(nc3[nH]c(C4CC4)cn32)n(Cc2ccccc2)c1=O [Compound 23, 1-Benzyl-7-cyclopropyl-3-propyl-1H-imidazo[1,2-f]purine-2,4(3H,8H)-dione]	
	115 nM	255 °C	99%			83%					CCCn1c(=O)c2c(nc3[nH]c(-c4ccccc4)cn32)n(Cc2ccccc2)c1=O [Compound 2, 1-Benzyl-7-phenyl-3-propyl-1H-imidazo[1,2-f]purine-2,4(3H,8H)-dione]	
	55 nM	257 °C	99%			99%					CCCn1c(=O)c2c(nc3[nH]c(-c4ccc(OC)cc4)cn32)n(Cc2ccccc2)c1=O [Compound 3, 1-Benzyl-7-(4-methoxyphenyl)-3-propyl-1H-imidazo[1,2-f]purine-2,4(3H,8H)-dione]	
86%	99 nM	230 °C	99%			51%					CCCn1c(=O)c2c(nc3[nH]c(C(C)(C)C)cn32)n(Cc2ccccc2)c1=O [Compound 22, 1-Benzyl-7-tert-butyl-3-propyl-1H-imidazo[1,2-f]purine-2,4(3H,8H)-dione]	
71%	555 nM	130 to 132 °C	99%			72%					CCCn1c(=O)c2c(nc3[nH]c(C4CCCCC4)cn32)n(Cc2ccccc2)c1=O [Compound 24, 1-Benzyl-7-cyclohexyl-3-propyl-1H-imidazo[1,2-f]purine-2,4(3H,8H)-dione]	
		255 °C					2060 nM				CCCn1c(=O)c2c(nc3[nH]c(C)cn32)n(Cc2ccccc2)c1=O [Compound 10, 1-Benzyl-7-methyl-3-propyl-1H-imidazo[1,2-f]purine-2,4(3H,8H)-dione]	
77%	31 nM	128 to 130 °C	91%	460 nM							CCCn1c(=O)c2c(nc3[nH]c(C(C)C)cn32)n(Cc2ccccc2)c1=O [Compound 21, 1-Benzyl-7-isopropyl-3-propyl-1H-imidazo[1,2-f]purine-2,4(3H,8H)-dione]	
97%	15 nM	285 °C	99%			65%					CCCn1c(=O)c2c(nc3[nH]c(CC)cn32)n(Cc2ccccc2)c1=O [Compound 20, 1-Benzyl-7-ethyl-3-propyl-1H-imidazo[1,2-f]purine-2,4(3H,8H)-dione]	
	22 nM	250 °C	97%			90%					CCCn1c(=O)c2c(nc3[nH]c(-c4ccc(F)cc4)cn32)n(Cc2ccccc2)c1=O [Compound 5, 1-Benzyl-7-(4-fluorophenyl)-3-propyl-1H-imidazo[1,2-f]purine-2,4(3H,8H)-dione]	
